Where a SMILES comes first, the peptide text is derived from it.
Key:
[1] = system: human Kv1.2; details: cited from earlier work; for IC50: human Kv1.2 channel blocking, patch-clamp, read-out: IC50, Kv1.x blocking (Kv1.2)
Protocol: Elution was done at 1 ml/min flow rate. Eluted peak fractions (1 ml) were analyzed by SDS-PAGE, then pooled and concentrated. The concentration of the purified protein was determined by measuring the UV absorbance at 280 nm using the protein extinction coefficient calculator in the ProtParam tool of Ex ...

[2] = system: human Kv1.3 channel (hKv1.3); assay: Whole-cell patch-clamp of phage-displayed toxins, hKv1.3 in human lymphocytes; format: cell-based; details: for estimated relative potency in phage-displayed form: from phage concentrations required to reach 50% block of hKv1.3 current, Vm24 = 1, Fig. 9B; for inhibition of Kv1.3 current in phage-displayed form, in words: phage-displayed peptide, DDDKTX1- and KTX1-phage at 3.6 × 10^13 particle/ml
Protocol: Human Kv1.3 currents were recorded from activated peripheral blood mononuclear cells (see below) 3 to 4 days after activation. Heparinized human peripheral venous blood was obtained from healthy volunteers. Mononuclear cells were separated through Histopaque-1077 density gradient centrifugation. Collected cells were washed twice with Ca^2+- and Mg^2+-free Hanks’ solution containing 25 mM Hepes buffer, pH 7.4. Cells were cultured for 3 to 4 days in 24-well culture plates in a 5% CO2 incubator at 37 °C, in RPMI 1640 medium supplemented with 10% fetal calf serum (Sigma-Aldrich), 100 μg/ml penicillin, 100 μg/ml streptomycin, and 2 mM L-glutamine (density, 0.5 × 10^6 cells per ml). Phytohemagglutinin A (Sigma-Aldrich) was added to the medium at 10 μg/ml to amplify the Kv1.3 expression. Cells were washed gently twice with 2 ml of ECS for the patch-clamp experiments.
Conventional whole-cell patch-clamp electrophysiology was used to record ionic currents. Micropipettes were pulled from GC150F-7.5 borosilicate capillaries (Harvard Apparatus) with tip diameters between 0.5 and 1 μm resulting in a tip resistance of 2 to 8 MΩ in the extracellular (bath) solution. All measurements were carried out by using Axopatch 200B amplifier connected to a personal computer using Axon Digidata 1550A data acquisition hardware and Pclamp10.7 software (https://support.moleculardevices.com/s/article/Axon-pCLAMP-10-Electrophysiology-Data-Acquisition-Analysis-Software-Download-Page). The holding potential was −120 mV. Records were discarded when leak at the holding potential was >10% of peak current at the test potential. Experiments were performed at room temperature (20–24 °C). Before analysis, whole-cell current traces were corrected for ohmic leakage and digitally filtered with a three-point boxcar smoothing filter.
Solutions: all salts and components of the solutions were purchased from Sigma Aldrich. The extracellular (bath) solution (ECS) contained 145 mM NaCl, 5 mM KCl, 2.5 mM CaCl2, 1 mM MgCl2, 10 mM Hepes, and 5.5 mM glucose (pH 7.35 with NaOH), while the intracellular (pipette) solution (ICS) contained 140 mM KF, 2 mM MgCl2, 1 mM CaCl2, 11 mM EGTA, and 10 mM Hepes (pH 7.22 with KOH). The osmolarity of the ECS and ICS were 302 mOsM.
Native peptides, phage-expressed peptides, and positive controls used for them were dissolved in ECS supplemented with 0.1 mg/ml bovine serum albumin (BSA; Sigma-Aldrich Hungary). Bath perfusion around the measured cell with different extracellular solutions was achieved using a gravity flow micro perfusion system using a rate of 0.5 ml/min. Excess fluid was removed continuously.
Voltage protocols: For measurement of Kv1.1 to 1.3 currents, voltage steps to +50 mV were applied from a holding potential of −120 mV and the peak current was measured every 15 s. For Kv1.3 currents, 15-ms-long depolarizing pulses were applied. For Kv1.1, 50-ms-long–activating stimuli were used. Kv1.2 currents were evoked by 200-ms-long pulses. […] The remaining current fraction at a given molar concentration was calculated as I/I0, where I0 is the peak current in the absence and I is the peak current at equilibrium block or […] after ∼2 min perfusion by the investigated peptide/phage.
Phage display test solutions were prepared according to routine phage display protocols ([62]). Phosphorylated and annealed oligonucleotides encoding the peptide construct were ligated into linearized pAS62 phagemid vector (https://patents.google.com/patent/WO2022144560A1/en) at a vector/insert ratio of 1:3. The final phagemid construct harbored a signal sequence followed by the peptide of interest, a linker sequence ([…]), and the C-terminal part of the P3 coat protein (amino acids: 216-424 of NP_510891.1). Chemically competent XL1-Blue E. coli cells (2022249, Agilent) were transformed with the ligation product and then streaked onto ampicillin (100 μg/ml) containing LB/Amp plates and incubated for 16 h at 37 °C.

Compound	IC50 [1]	estimated relative potency in phage-displayed form [2]	inhibition of Kv1.3 current in phage-displayed form, in words [2]	block of native Kv1.2, in words [1]	inhibition of Kv1.2, in words [1]
CC[C@H](C)[C@H](NC(=O)[C@H](CCC(=O)O)NC(=O)[C@@H](NC(=O)CN)C(C)C)C(=O)N[C@@H](CC(N)=O)C(=O)N[C@H](C(=O)N[C@@H](CCCCN)C(=O)N[C@H]1CSSC[C@@H]2NC(=O)[C@H](CCCCN)NC(=O)CNC(=O)[C@H](Cc3ccccc3)NC(=O)[C@H](CCCNC(=N)N)NC(=O)[C@H](CCSC)NC(=O)CNC(=O)[C@H](C)NC(=O)[C@H](CC(=O)O)NC(=O)[C@H](CCCCN)NC(=O)[C@@H]3CSSC[C@@H](C(=O)N[C@H](C(=O)N4CCC[C@H]4C(=O)N[C@@H](CCCCN)C(=O)O)[C@@H](C)O)NC(=O)[C@H](Cc4c[nH]cn4)NC(=O)[C@H](CSSC[C@H](NC(=O)[C@H](CCC(N)=O)NC(=O)[C@@H]4CCCN4C(=O)[C@H](CO)NC(=O)CNC(=O)[C@H](CO)NC1=O)C(=O)N[C@@H](CC(C)C)C(=O)N[C@@H](CCCCN)C(=O)N1CCC[C@H]1C(=O)N3)NC(=O)[C@H](CCCCN)NC(=O)[C@H](CCCNC(=N)N)NC(=O)[C@H](CC(N)=O)NC(=O)[C@H](CCSC)NC2=O)C(C)C [KTX1, Kaliotoxin-1]	> 1000 nM	< 1/600	significant inhibition	–	–
CC[C@H](C)[C@@H]1NC(=O)[C@@H]2CSSC[C@H](NC(=O)[C@H](CO)NC(=O)[C@@H](N)C(C)C)C(=O)N[C@@H]([C@@H](C)O)C(=O)NCC(=O)N[C@@H](CO)C(=O)N[C@@H](CCCCN)C(=O)N[C@@H](CC(=O)O)C(=O)N[C@@H](CSSC[C@@H](C(=O)N[C@@H](CCCCN)C(=O)N[C@H]3CSSC[C@@H](C(N)=O)NC(=O)CNC(=O)[C@H](Cc4ccc(O)cc4)NC3=O)NC(=O)[C@H](CO)NC(=O)[C@H](CCCCN)NC(=O)[C@H](CC(N)=O)NC1=O)C(=O)N[C@@H](Cc1ccc(O)cc1)C(=O)N[C@@H](C)C(=O)N1CCC[C@H]1C(=O)N[C@H]1CSSC[C@H](NC(=O)CNC(=O)[C@H]([C@@H](C)O)NC(=O)[C@H](CCC(N)=O)NC(=O)[C@H](CCCCN)NC(=O)[C@H](CCCNC(=N)N)NC1=O)C(=O)N1CCC[C@H]1C(=O)N[C@@H](CC(N)=O)C(=O)N[C@@H](C)C(=O)N[C@@H](CCCCN)C(=O)N2 [MTX, Maurotoxin] (HELM PEPTIDE1{V.S.C.T.G.S.K.D.C.Y.A.P.C.R.K.Q.T.G.C.P.N.A.K.C.I.N.K.S.C.K.C.Y.G.C.[am]}$PEPTIDE1,PEPTIDE1,3:R3-24:R3|PEPTIDE1,PEPTIDE1,9:R3-29:R3|PEPTIDE1,PEPTIDE1,13:R3-19:R3|PEPTIDE1,PEPTIDE1,31:R3-34:R3$$$V2.0; N-terminus and C-terminus assumed)	0.8 nM	–	–	potent blocker	–
CC[C@H](C)[C@@H]1NC(=O)CNC(=O)[C@H](Cc2ccccc2)NC(=O)[C@H](CCC(N)=O)NC(=O)[C@H](C)NC(=O)[C@H](CCCCN)NC(=O)[C@@H]2CSSC[C@@H](C(=O)N[C@@H](Cc3ccc(O)cc3)C(=O)N3CCC[C@H]3C(=O)N[C@@H](Cc3c[nH]cn3)C(=O)O)NC(=O)[C@H](CCCCN)NC(=O)[C@@H]3CSSC[C@H](NC(=O)[C@H](CCC(N)=O)NC(=O)[C@H](CCCCN)NC(=O)[C@@H]4CCCN4C(=O)[C@H](CO)NC(=O)[C@H]([C@@H](C)O)NC(=O)[C@@H](NC(=O)[C@H](CCCCN)NC(=O)[C@@H](NC(=O)[C@H](CC(=O)O)NC(=O)[C@@H](NC(=O)[C@@H](NC(=O)[C@@H](N)[C@@H](C)O)C(C)C)[C@@H](C)CC)C(C)C)CSSC[C@H](NC(=O)[C@H](CCCCN)NC(=O)[C@H](C)NC(=O)CNC(=O)[C@H](C)NC(=O)[C@H](CCCNC(=N)N)NC1=O)C(=O)N[C@@H](CCSC)C(=O)N[C@@H](CC(N)=O)C(=O)NCC(=O)N[C@@H](CCCCN)C(=O)N3)C(=O)N[C@@H](CC(C)C)C(=O)N1CCC[C@H]1C(=O)N1CCC[C@H]1C(=O)N2 [HgTx1, Hongotoxin-1] (HELM PEPTIDE1{T.V.I.D.V.K.C.T.S.P.K.Q.C.L.P.P.C.K.A.Q.F.G.I.R.A.G.A.K.C.M.N.G.K.C.K.C.Y.P.H}$PEPTIDE1,PEPTIDE1,7:R3-29:R3|PEPTIDE1,PEPTIDE1,13:R3-34:R3|PEPTIDE1,PEPTIDE1,17:R3-36:R3$$$V2.0; N-terminus and C-terminus assumed)	–	1/30	significant inhibition	–	equivalent high potency
CC[C@H](C)[C@H](NC(=O)[C@H](C)NC(=O)[C@H](C)NC(=O)[C@H](C)N)C(=O)N[C@@H](CO)C(=O)N[C@H]1CSSC[C@@H]2NC(=O)[C@H](CCCCN)NC(=O)CNC(=O)[C@H](CC(N)=O)NC(=O)[C@H](CCCCN)NC(=O)[C@@H]3CSSC[C@@H](C(N)=O)NC(=O)[C@H](Cc4ccc(O)cc4)NC(=O)[C@H](Cc4ccc(O)cc4)NC(=O)[C@@H]4CSSC[C@H](NC(=O)[C@H](CCCCN)NC(=O)[C@@H]5CCCN5C(=O)[C@@H]5CCCN5C(=O)[C@H](CSSC[C@H](NC(=O)[C@H](CCCCN)NC(=O)[C@H](CCCNC(=N)N)NC(=O)[C@H](CC(N)=O)NC(=O)[C@H](CCSC)NC2=O)C(=O)N[C@@H](CCCCN)C(=O)N4)NC(=O)[C@H](CCC(=O)O)NC(=O)[C@@H]2CCCN2C(=O)[C@H](CO)NC(=O)CNC(=O)[C@H](C(C)C)NC1=O)C(=O)N[C@@H](CCCNC(=N)N)C(=O)N[C@@H](C)C(=O)N[C@@H](CCC(N)=O)C(=O)NCC(=O)N3 [Vm24, Vm24 toxin]	–	approximately 1	significant inhibition	–	–
CC[C@H](C)[C@@H]1NC(=O)[C@@H](NC(=O)[C@H](CO)NC(=O)[C@@H](N)CCCNC(=N)N)CSSC[C@@H](C(=O)O)NC(=O)[C@H]([C@@H](C)O)NC(=O)CNC(=O)[C@@H]2CSSC[C@@H]3NC(=O)[C@H](CCC(N)=O)NC(=O)[C@H](Cc4ccccc4)NC(=O)[C@H](C)NC(=O)[C@H]([C@@H](C)O)NC(=O)[C@H](CSSC[C@H](NC(=O)[C@H](Cc4ccccc4)NC(=O)[C@H](CO)NC(=O)[C@H](CC(C)C)NC(=O)[C@H](CCCNC(=N)N)NC(=O)[C@H](Cc4ccc(O)cc4)NC(=O)[C@H](CCCCN)NC(=O)[C@H](CCSC)NC(=O)[C@H](CO)NC(=O)[C@H](Cc4c[nH]cn4)NC(=O)[C@H](CCCCN)NC3=O)C(=O)N[C@@H](CCCNC(=N)N)C(=O)N[C@@H](CCCCN)C(=O)N[C@@H]([C@@H](C)O)C(=O)N2)NC(=O)[C@H](CCCNC(=N)N)NC(=O)[C@H](CO)NC(=O)[C@H](CCCCN)NC(=O)[C@@H]2CCCN2C(=O)[C@H]([C@@H](C)CC)NC(=O)[C@H]([C@@H](C)O)NC(=O)[C@H](CC(=O)O)NC1=O [ShK, Stichodactyla toxin]	9 nM	–	–	–	–

Source: publication PMC11002876, “KcsA-Kv1.x chimeras with complete ligand-binding sites provide improved predictivity for screening selective Kv1.x blockers” (The Journal of Biological Chemistry, 2024)
